Experimental data as given in ChEMBL document CHEMBL1131496, “Excitatory amino acid receptor ligands: resolution, absolute stereochemistry, and enantiopharmacology of 2-amino-3-(4-butyl-3-hydroxyisoxazol-5-yl)propionic acid” (J Med Chem, 1998).

Key:
[1] = molecular target: Glutamate receptor ionotropic, AMPA (Mus musculus, UniProt P23818+P23819+Q9Z2W8+Q9Z2W9)
Description: Compound was tested for in vitro binding affinity against Ionotropic glutamate receptor AMPA using [3H]AMPA ligand

[2] = system: Mus musculus; experiment: In vivo convulsant activity were tested in mice after subcutaneous administration.; assay type: functional; settings: sc
[3] = organism: Rattus norvegicus; experiment: Compound was tested for electrophysiological experiments using rat cortical wedge preparation; assay type: functional
[4] = In vitro binding affinity against Metabotropic glutamate receptor using [3H](S)-glutamic acid; design: species or system Mus musculus
[5] = system: Mus musculus; experiment: In vivo convulsant activity were tested in mice after intravenous administration.

Row | Structure (SMILES) | IC50 [1] [µM] | ED50 [2] [µmol/kg] | EC50 [3] [µM] | IC50 [4] [µM] | ED50 [5] [µmol/kg]
1 | CCCCc1c(O)noc1CC(N)C(=O)O (stereo unspecified) | 1.8 | 110 | 37 | 0.63 | 94
2 | CCCCc1c(O)noc1C[C@@H](N)C(=O)O | > 1000 |  | > 1000 | 0.57 | > 350
3 | CCCCc1c(O)noc1C[C@H](N)C(=O)O | 0.48 |  | 17 | 0.64 | 44
4 | N[C@@H](Cc1onc(O)c1Br)C(=O)O | 0.34 |  | 21 | 0.22 | 
5 | N[C@H](Cc1onc(O)c1Br)C(=O)O | 32 |  | > 1000 | 0.15 | 
6 | NC(Cc1onc(O)c1Br)C(=O)O (stereo unspecified) | 0.6 |  | 23 | 0.2 | 
7 | Cc1onc(O)c1CC(N)C(=O)O [(R,S)-AMPA] |  |  |  | > 100 | 55
8 | N[C@@H](Cn1oc(=O)[nH]c1=O)C(=O)O [QUISQUALATE] |  |  | 7.3 | 0.025 | 
